From patent publication US8609656B2, “Heteroarylphenylurea derivative” (Chugai Seiyaku Kabushiki Kaisha, priority 2004, dated 2013)
In brackets after ≈: the same amount, converted by molar mass. Structures can show the parent of a compound that is named as a salt.

Tests used:
[1] = tested on: VEGF non-dependent human umbilical vein endothelial cells (HUVEC); test: Cell growth inhibition test, VEGF non-dependent HUVEC; type: cell-based; details: 72 hours, WST-1, read-out: HUVEC (VEGF Nondependence), 50% Growth Inhibition Concentration (IC50 value)
Description: (§1) Cell Growth Inhibition Test
(§2) With respect to the compounds relating to the present invention and the known compound (BAY 43-9006), cell growth inhibition activity was measured.
(§3) A sample compound was in-series diluted with dimethyl sulfoxide, and then was 1/50 diluted with a Ca^2+- and Mg^2+-free phosphate-bufferized physiological saline and its 20 μL was poured to a 96-well plate. […] Each of these cell suspensions was dividedly poured to the sample added plate in 180 μL/well and cultured in a 5% carbon dioxide incubator at 37° C. After 72 hours, 20 μL of WST-(HCT 116, a product of Dojin) or WST-1 (HUVEC, a product of Roche diagnostics) was added thereto to each well and the absorbance at 450 nm (reference wavelength: 650 nm) was measured. From the growth inhibition ratio of addition of the sample compound to no-addition of the sample compound as a reference, the 50% growth inhibition IC50) of the sample compound was calculated.
(§4) With respect to the group of representative compounds of the present invention, the IC50 values of HCT 116 and HUVEC (VEGF nondependent growth and VEGF dependent growth) are shown in Tables 5-1 to 5-3.

[2] = tested on: human colorectal cancer cell strain HCT 116; test: Cell growth inhibition test, HCT 116; type: cell-based; details: 72 hours, read-out: HCT116, 50% Growth Inhibition Concentration (IC50 value)
Description: as §1, §2, §3, §4

VEGF dependent HUVEC = test: Cell growth inhibition test, VEGF dependent HUVEC; type: cell-based; details: Homo sapiens, 20 ng/mL of VEGF, 72 hours, WST-1, read-out: HUVEC (VEGF Dependence), 50% Growth Inhibition Concentration (IC50 value)
Description: as §1, §2, §3, §4

[3] = biological target: T1, recombinant Raf-1 protein (activated type GST-Raf-1) (Homo sapiens, UniProt P04049); test: RAF-1 enzyme inhibition test (33P incorporation into MEK 1 protein); type: biochemical; details: 10 μM ATP, GST-MEK1 substrate, 30° C., 45 minutes; read-out: Raf-1 Enzyme Inhibition, 50% Enzyme Inhibition Concentration (IC50 value)
T1 construct: fused on or other part: GST tag fused to Raf-1
Description: RAF-1 Enzyme Inhibition Test
With respect to the compounds relating to the present invention and the known compound (BAY 43-9006):
[drawing 660] the Raf-1 protein inhibition activity was measured. The enzymatic reaction was measured by incorporation of ^33P-phosphoric acid into MEK 1 protein by a recombinant Raf-1 protein. The activity was measured by preparing 50 μL of a reaction solution containing a dimethyl sulfoxide solution of the compound relating to the present invention or the compound BAY 43-9006 at a varied concentration [as the final concentration, the reaction solution containing […] of TRIS hydrochloric buffer (pH 7.5), 1 mM of dithiothreitol, 100 mM of sodium chloride, 10 mM of potassium fluoride, 1 mM of sodium vanadate, 10 mM of magnesium chloride, 10 μM of adenosine triphosphate (ATP, containing ^33P-ATP of 12580Bq), 2 μg of GST-MEK1 and 25 ng of an activated type GST-Raf-1]; keeping the reaction solution at 30° C. for 45 minutes; adding 100% trichloroacetic acid to the reaction solution in an amount twice the volume of the reaction solution to precipitate a proteinous component; recovering the precipitate on a glass filter; and measuring the radioactivity of the recovered product. The 50% inhibition concentration (IC50) was obtained from the inhibition ratio to a sample-free reference.
The compound BAYT 43-9006 was prepared on the basis of the description (Example 41) of WO 00/42012.

[4] = Solubility to fasted state simulated intestinal fluid; type: physicochemical; details: fassif, kinetic from dmso stock, fasted state simulated intestinal fluid (pH 6.5), 37° C.
Description: Method of Measuring Solubility to Fasted State Simulated Intestinal Fluid
To a 96-well plate, 2 μL of a dimethyl sulfoxide solution of the compound relating to the present invention or that of the compound BAY 43-9006 was poured at one time, respectively, and fasted state simulated intestinal fluid (pH 6.5) was added 200 μL by 200 μL, and the plate was shaken at 37° C. for 20 hours. The solution was filtered with a membrane filter and 101 μL of the filtrate was transferred to an UV plate, and 100 μL of a mixed solution of ethanol:water=2:1 was added thereto. On the other hand, as a standard solution, 2 μL of a dimethyl sulfoxide solution was added to a solution containing 4 μL of dimethyl sulfoxide, 400 μL of ethanol and 200 μL of water and the obtained solution was transferred 101 μL by 101 μL to the UV plate and to this UV plate, the simulated fasting bile-containing intestinal juice (pH 6.5) was added 100 μL by 100 μL. The solubility was calculated by the following equation. Solubility=(absorbance of sample solution-blank)/(absorbance of standard solution-blank)×[…]
165 μL is a concentration of the standard solution.
Composition of Fasted State Simulated Intestinal Fluid
Fasted state simulated intestinal fluid was prepared in accordance with E. Galia et al., Pharm. Res., 698, 1998.
To about 90 mL of water, 161 mg of taurocholic acid, 59 mg of L-α-phosphatidylcholine, 0.39 g of potassium dihydrogenphosphate and 0.77 g of potassium chloride were added and the pH of the mixture solution […] and the mixture solution was filtered with a membrane filter.

T1 sequence (P04049 349-648 limits assumed): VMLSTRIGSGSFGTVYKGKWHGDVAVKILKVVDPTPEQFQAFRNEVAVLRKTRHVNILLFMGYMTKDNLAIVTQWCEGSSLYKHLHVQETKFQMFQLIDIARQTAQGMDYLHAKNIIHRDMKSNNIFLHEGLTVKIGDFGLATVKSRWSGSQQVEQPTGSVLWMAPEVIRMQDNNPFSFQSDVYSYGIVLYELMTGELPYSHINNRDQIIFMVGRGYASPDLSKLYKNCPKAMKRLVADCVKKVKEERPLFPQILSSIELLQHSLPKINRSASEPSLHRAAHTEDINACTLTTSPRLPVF

SMILES	IC50 [2]	IC50 [3]	solubility at 20 h [4]	IC50 [1]	IC50 (VEGF dependent HUVEC)
Nc1ncnc2c1ncn2-c1ccc(N(O)C(=O)Nc2ccc(Cl)c(C(F)(F)F)c2)cc1 [Table 1, Compound 49, 1-[4-(6-Aminopurin-9-yl)phenyl]-3-(4-chloro-3-(trifluoromethyl)phenyl)-1-hydroxyurea hydrochloride]	7300 nM			4100 nM	190 nM
O=C(Nc1ccc(-n2cnc3cnccc32)cc1)Nc1ccc(Cl)c(C(F)(F)F)c1 [Table 1, Compound 1, 1-(4-chloro-3-(trifluoromethyl)phenyl)-3-(4-imidazo[4,5-c]pyridin-1-ylphenyl)urea]	1200 nM			2100 nM	92 nM
CNc1ncnc2c1ncn2-c1ccc(NC(=O)Nc2ccc(CCCN3CCOCC3)c(C(F)(F)F)c2)cc1 [Table 2, Compound 76, 1-[4-(6-(Methylamino)purin-9-yl)phenyl]-3-[4-[3-morpholin-4-yl-propyl]-3-(trifluoromethyl)phenyl]-urea]	900 nM			1000 nM	57 nM
Nc1ncnc2c1ncn2-c1ccc(NC(=O)Nc2ccc(Cl)c(C(F)(F)F)c2)cc1 [Table 1, Compound 30, 1-[4-(6-Aminopurin-9-yl)phenyl]-3-(4-chloro-3-(trifluoromethyl)phenyl)urea hydrochloride]		33 nM			
CC(=O)Oc1cccc2c1ccn2-c1ccc(NC(=O)Nc2ccc(Cl)c(C(F)(F)F)c2)cc1 [Table 1, Compound 18, Acetic acid 1-{4-[3-(4-chloro-3-(trifluoromethyl)phenyl)ureido]phenyl}-1H-indol-4-yl ester]		47 nM			
CNc1ncnc2c1ncn2-c1ccc(N(O)C(=O)Nc2ccc(Cl)c(C(F)(F)F)c2)cc1 [Table 1, Compound 53, 3-(4-Chloro-3-(trifluoromethyl)phenyl)-1-hydroxy-1-[4-(6-(methylamino)pruin-9-yl)phenyl]urea]	3400 nM			2800 nM	440 nM
CNc1ncnc2c1ncn2-c1ccc(NC(=O)Nc2ccc(CN3CCN(C(C)C)CC3)c(C(F)(F)F)c2)cc1 [Table 3, Compound 28, 1-[4-(4-Isopropyl-piperazin-1-ylmethyl)-3-(trifluoromethyl)phenyl]-3-[4-(6-(methylamino)purin-9-yl)phenyl]urea]	200 nM			300 nM	8 nM
C=Cc1nc2c(N)ncnc2n1-c1ccc(NC(=O)Nc2cc(CN3CCN(C)CC3)cc(C(F)(F)F)c2)cc1 [Table 2, Compound 28]		69 nM	238 µg/mL (≈ 431 µM)		
CN1CCN(Cc2cc(NC(=O)Nc3ccc(-n4cnc5ncnc(N)c54)cc3)cc(C(F)(F)F)c2)CC1 [Table 3, Compound 4]		53 nM	219 µg/mL (≈ 417 µM)		

Further lines, with some results ahead:

IC50 [2]	IC50 [3]	solubility at 20 h [4]	SMILES	IC50 [1]	IC50 (VEGF dependent HUVEC)
1800 nM			Nc1ncnc2c1ncn2-c1ccc(NC(=O)Nc2cc(Br)cc(C(F)(F)F)c2)cc1 [Table 2, Compound 43]	3800 nM	150 nM
1800 nM			CNc1ncnc2c1ncn2-c1ccc(NC(=O)Nc2ccc(N(C)C)c(C(F)(F)F)c2)cc1 [Table 2, Compound 42, 1-(4-Dimethylamino-3-(trifluoromethyl)phenyl)-3-[4-(6-(methylamino)purin-9-yl)phenyl]urea]	4000 nM	56 nM
800 nM			CNc1ncnc2c1ncn2-c1ccc(NC(=O)Nc2ccc(OCCOC)c(C(F)(F)F)c2)cc1 [Table 3, Compound 41, 1-[4-(2-Methoxy-ethoxy)-3-(trifluoromethyl)phenyl]-3-[4-(6-(methylamino)purin-9-yl)phenyl]urea]	900 nM	76 nM
1100 nM			CNc1ncnc2c1ncn2-c1ccc(NC(=O)Nc2cccc(C(F)(F)F)c2)cc1 [Table 2, Compound 19, 1-[4-(6-(Methylamino)purin-9-yl)phenyl]-3-(3-(trifluoro-methyl)phenyl)urea]	1900 nM	57 nM
300 nM			CCN1CCN(Cc2ccc(NC(=O)Nc3ccc(-n4cnc5c(NC)ncnc54)cc3)cc2C(F)(F)F)CC1 [Table 3, Compound 14, 1-[4-(4-Ethyl-piperazin-1-ylmethyl)-3-(trifluoromethyl)phenyl]-3-[4-(6-(methylamino)purin-9-yl)phenyl]urea]	200 nM	4 nM
2500 nM			CNc1ncnc2c1ncn2-c1ccc(NC(=O)Nc2cc(CCCN3CCOCC3)cc(C(F)(F)F)c2)cc1 [Table 3, Compound 48, 1-[4-(6-(Methylamino)purin-9-yl)phenyl]-3-[3-(3-morpholin-4-yl-propyl)-5-(trifluoromethyl)phenyl]-urea]	3200 nM	39 nM
900 nM			CNc1ncnc2c1ncn2-c1ccc(NC(=O)Nc2ccc(CN3CCOCC3)c(C(F)(F)F)c2)cc1 [Table 2, Compound 47, 1-[4-(6-(Methylamino)purin-9-yl)phenyl]-3-(4-morpholin-4-ylmethyl-3-(trifluoromethyl)phenyl)urea]	700 nM	29 nM
	170 nM		CNc1ncnc2c1ncn2-c1ccc(NC(=O)Nc2cc(CCN3CCCCC3)cc(C(F)(F)F)c2)cc1 [Table 3, Compound 30, 1-[4-(6-(Methylamino)purin-9-yl)phenyl]-3-[3-(2-piperidin-1-yl-ethyl)-5-(trifluoromethyl)phenyl]urea]		
1200 nM			CNc1ncnc2c1ncn2-c1ccc(NC(=O)Nc2ccc(CCCN(C)C)c(C(F)(F)F)c2)cc1 [Table 2, Compound 74]	900 nM	83 nM
	130 nM		CNc1ncnc2c1ncn2-c1ccc(NC(=O)Nc2cc(C(=O)NCC(O)CO)cc(C(F)(F)F)c2)cc1 (stereo not drawn) [Table 2, Compound 57]		
	85 nM		CN(C)CCNC(=O)c1cc(NC(=O)Nc2ccc(-n3cnc4ncnc(N)c43)cc2)cc(C(F)(F)F)c1 [Table 3, Compound 9, 3-{3-[4-(6-Aminopurin-7-yl)phenyl]ureido}-N-(2-(dimethylamino)ethyl)-5-(trifluoromethyl)benzamide]		
	73 nM	79 µg/mL (≈ 147 µM)	CNc1ncnc2c1ncn2-c1ccc(NC(=O)Nc2cc(CCCN3CCCC3)cc(C(F)(F)F)c2)cc1 [Table 3, Compound 45, 1-[4-(6-(Methylamino)purin-9-yl)phenyl]-3-[3-(3-pyrrolidin-1-yl-propyl)-5-(trifluoromethyl)phenyl]-urea]		
	75 nM		CNc1ncnc2c1ncn2-c1ccc(NC(=O)Nc2cc(C(=O)NCCN(C)C)cc(C(F)(F)F)c2)cc1 [Table 2, Compound 40, N-(2-Dimethylaminoethyl)-3-{3-[4-(6-(methylamino)purin-9-yl)phenyl]ureido}-5-(trifluoromethyl)benzamide]		
